According to the supplement of paper PMC10307832:

Key:
Test in all cases: relative viability (nuclei count vs DMSO), 5 days (fraction); higher = more cells survive
Idelalisib + Bortezomib = compound: CC[C@H](Nc1ncnc2[nH]cnc12)c1nc2cccc(F)c2c(=O)n1-c1ccccc1 [Idelalisib] + CC(C)C[C@H](NC(=O)[C@H](Cc1ccccc1)NC(=O)c1cnccn1)B(O)O [Bortezomib] (partner 0.002 µM)
How it was run: (§1)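 Five library-drug doses in √10 steps were combined with a fixed anchor-drug dose, or a single drug was given alone, by pin tool to lung cancer cell lines in 1536-well plates the day after seeding. Nuclei were stained and counted after 5 days. Relative viability is the nuclei count in treated wells over that in vehicle wells, taken as the median of duplicate plates.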

Pemetrexed + AZD7762 = compound: Nc1nc2[nH]cc(CCc3ccc(C(=O)N[C@@H](CCC(=O)O)C(=O)O)cc3)c2c(=O)[nH]1 [Pemetrexed] + NC(=O)Nc1cc(-c2cccc(F)c2)sc1C(=O)N[C@H]1CCCNC1 [AZD7762] (partner 0.2 µM)
How it was run: as §1

Idelalisib + Linsitinib = compound: CC[C@H](Nc1ncnc2[nH]cnc12)c1nc2cccc(F)c2c(=O)n1-c1ccccc1 [Idelalisib] + C[C@]1(O)C[C@@H](c2nc(-c3ccc4ccc(-c5ccccc5)nc4c3)c3c(N)nccn32)C1 [Linsitinib] (partner 1 µM)
How it was run: as §1

Idelalisib + Pictilisib = compound: CC[C@H](Nc1ncnc2[nH]cnc12)c1nc2cccc(F)c2c(=O)n1-c1ccccc1 [Idelalisib] + CS(=O)(=O)N1CCN(Cc2cc3nc(-c4cccc5[nH]ncc45)nc(N4CCOCC4)c3s2)CC1 [Pictilisib] (partner 1 µM)
How it was run: as §1

Row | Cell Line | relative viability (Idelalisib + Bortezomib; first compound 0.04 µM) | relative viability (Idelalisib + Bortezomib; first compound 0.1265 µM) | relative viability (Idelalisib + Bortezomib; first compound 0.4 µM) | relative viability (Idelalisib + Bortezomib; first compound 1.265 µM) | relative viability (Idelalisib + Bortezomib; first compound 4 µM) | relative viability (Pemetrexed + AZD7762; first compound 0.002 µM) | relative viability (Pemetrexed + AZD7762; first compound 0.006325 µM) | relative viability (Pemetrexed + AZD7762; first compound 0.02 µM) | relative viability (Pemetrexed + AZD7762; first compound 0.06325 µM) | relative viability (Pemetrexed + AZD7762; first compound 0.2 µM) | relative viability (Idelalisib + Linsitinib; first compound 0.04 µM) | relative viability (Idelalisib + Linsitinib; first compound 0.1265 µM) | relative viability (Idelalisib + Linsitinib; first compound 0.4 µM) | relative viability (Idelalisib + Linsitinib; first compound 1.265 µM) | relative viability (Idelalisib + Linsitinib; first compound 4 µM) | relative viability (Idelalisib + Pictilisib; first compound 0.04 µM) | relative viability (Idelalisib + Pictilisib; first compound 0.1265 µM) | relative viability (Idelalisib + Pictilisib; first compound 0.4 µM) | relative viability (Idelalisib + Pictilisib; first compound 1.265 µM) | relative viability (Idelalisib + Pictilisib; first compound 4 µM)
1 | 201T | 1.1 | 1.07 | 1.1 | 1.13 | 1.08 | 0.606 | 0.612 | 0.725 | 0.512 | 0.374 | 1.09 | 1.02 | 0.937 | 0.933 | 0.926 | 0.686 | 0.712 | 0.59 | 0.736 | 0.661
2 | HCC-78 | 0.365 | 0.423 |  | 0.46 | 0.266 |  | 0.505 | 0.42 | 0.3 | 0.236 | 0.254 | 0.514 | 0.346 | 0.45 | 0.226 | 0.222 | 0.208 | 0.206 | 0.21 | 0.228
3 | H3255 | 0.882 | 0.888 | 0.807 | 0.807 | 0.829 | 0.798 | 0.916 | 0.928 | 0.79 | 0.571 | 0.959 | 1.01 | 0.829 | 0.857 | 0.801 | 0.416 | 0.442 | 0.44 | 0.436 | 0.404
4 | LOU-NH91 | 0.483 | 0.39 | 0.512 | 0.437 | 0.472 | 0.678 | 0.738 | 0.715 | 0.44 | 0.394 | 0.942 | 0.88 | 0.904 | 0.683 | 0.864 | 0.532 | 0.478 | 0.509 | 0.504 | 0.575
5 | NCI-H1666 | 1.02 | 0.866 | 0.742 | 0.849 | 0.779 | 0.79 | 0.843 | 0.835 | 0.72 | 0.456 | 0.881 | 0.873 | 0.73 | 0.629 | 0.552 | 0.541 | 0.48 | 0.469 | 0.361 | 0.333
6 | NCI-H838 | 0.835 | 0.95 | 0.476 | 1.03 | 0.635 | 0.934 | 0.862 | 0.757 | 0.635 | 0.579 | 0.926 | 1.01 | 0.891 | 1.01 | 0.8 | 0.505 | 0.469 | 0.346 | 0.531 | 0.469
